Laboratory results reported in patent publication US8658698B2, “Insecticidal compounds” (Syngenta Crop Protection, LLC, priority 2008, dated 2014).

How the values were obtained:
Format in all cases: in vivo
[1] = system: Tetranychus urticae (Two-Spotted Spider Mite); assay: Tetranychus urticae bean leaf disc spray test; details: same protocol, 200 ppm, 8 days
Experimental: (§1) This Example illustrates the pesticidal/insecticidal properties of compounds of formula (I). The tests were performed as follows:
(§2) Cotton leaf discs were placed on agar in a 24-well microtiter plate and sprayed with test solutions at an application rate of 200 ppm. After drying, the leaf discs were infested with 5 L1 larvae. The samples were checked for mortality, feeding behavior, and growth regulation 3 days after treatment (DAT). The following compounds gave at least 80% control of Spodoptera littoralis: A2, A6, A8, A9, A10, A11, A13, A15, A19, A20, A22, A25, A27, A29, A31, A33, A35, A41, A50, A55, A60, A65, A73, A88, A92, and A94. Heliothis virescens (Tobacco Budworm): Eggs (0-24 h old) were placed in 24-well microtiter plate on artificial diet and treated with test solutions at an application rate of 200 ppm (concentration in well 18 ppm) by pipetting. After an incubation period of 4 days, samples were checked for egg mortality, larval mortality and growth regulation. The following compounds gave at least 80% control of Heliothis virescens: A2, A3, A4, A5, A6, A7, A9, A10, A11, A13, A15, A19, A20, A22, A25, A26, A27, A28, A29, A31, A32, A33, A35, A38, A40, A41, A43, A46, A55, A59, A60, A65, A69, A70, A71, A73, A74, A75, A77, A79, A80, A82, A86, A88, A89, A90, A92, A94, A96, A98, and A100. Plutella xylostella (Diamond Back Moth): A 24-well microtiter plate (MTP) with artificial diet was treated with test solutions at an application rate of 200 ppm (concentration in well 18 ppm) by pipetting. After drying, the MTP's were infested with L2 larvae (7-12 per well). After an incubation period of 6 days, samples were checked for larval mortality and growth regulation. The following compounds gave at least 80% control of Plutella xylostella: A3, A4, A5, A6, A7, A8, A10, A15, A16, A18, A19, A20, A22, A25, A26, A27, A28, A29, A31, A32, A33, A35, A38, A40, A55, A69, A71, A73, A74, A75, A76, A77, A78, A80, A82, A86, A87, A88, A89, A92, A94, A96, A97, A98, and A99. Diabrotica balteata (Corn Root Worm): A 24-well microtiter plate (MTP) with artificial diet was treated with test solutions at an application rate of 200 ppm (concentration in well 18 ppm) by pipetting. After drying, the MTP's were infested with larvae (L2) (6-10 per well). After an incubation period of 5 days, samples were checked for larval mortality, and growth regulation. The following compounds gave at least 80% control of Diabrotica balteata: A5, A6, A7, A14, A15, A18, A24, A35, A53, A55, A70, A71, A75, A79, A84, A85, A88, A92, A93, A95, A96, A97, A98, A99, A100, A101, A102, A103, and A104. Myzus persicae (Green Peach Aphid): Each well of a 24-well microtiter plate is filled with 0.6 ml 30% sucrose solution, containing 12.5 ppm of the test compounds. The wells are covered with streched parafilm and infested with a mixed population of Myzus persicae. After an incubation period of 6 days, samples are checked for mortality (feeding activity). The following compounds gave at least 80% control of Myzus persicae: A4, A6, A10, A11, A15, A19, A20, A24, A27, A29, A33, A34, A36, A37, A39, A40, A41, A42, A43, A44, A45, A46, A47, A48, A49, A55, A60, and A82. Tetranychus urticae (Two-Spotted Spider Mite): Bean leaf discs on agar in 24-well microtiter plates were sprayed with test solutions at an application rate of 200 ppm. After drying, the leaf discs are infested with mite populations of mixed ages. 8 days later, discs are checked for egg mortality, larval mortality, and adult mortality. The following compounds gave at least 80% control of Tetranychus urticae: A6, A11, A15, A19, A20, A22, A26, A35, A58, and A64.

[2] = system: Diabrotica balteata (Corn Root Worm); assay: Diabrotica balteata larvae test on artificial diet; details: same protocol, 200 ppm (18 ppm in well), 5 days
Experimental: as §1, §2

[3] = system: Spodoptera littoralis (Egyptian Cotton Leafworm); assay: Spodoptera littoralis cotton leaf disc spray test; details: same protocol, 200 ppm, 3 DAT
Experimental: as §1
Spodoptera littoralis (Egyptian Cotton Leafworm)
as §2

[4] = system: Myzus persicae (Green Peach Aphid); assay: Myzus persicae sucrose solution feeding test; details: same protocol, 12.5 ppm, 6 days
Experimental: as §1, §2

[5] = system: Plutella xylostella (Diamond Back Moth); assay: Plutella xylostella larvae test on artificial diet; details: same protocol, 200 ppm (18 ppm in well), 6 days
Experimental: as §1, §2

[6] = system: Heliothis virescens (Tobacco Budworm); assay: Heliothis virescens egg test on artificial diet; details: same protocol, 200 ppm (18 ppm in well), 4 days
Experimental: as §1, §2

Measured: effect on mortality, feeding behavior, or growth regulation

CCc1cc(C(F)(C(F)(F)F)C(F)(F)C(F)(F)F)cc(C)c1NC(=O)c1ccc(C(=O)Nc2ncccc2C)c(C)c1 (stereo not drawn) [A57]
no or little effect: [1] | [2] | [3] | [4] | [5] | [6]

CCc1cc(C(F)(C(F)(F)F)C(F)(F)C(F)(F)F)cc(C)c1NC(=O)c1ccc(C(=O)NCc2ccc(C)c(C)c2)c(C)c1 (stereo not drawn) [A91]
no or little effect: [1] | [2] | [3] | [4] | [5] | [6]

CCc1cc(C(F)(C(F)(F)F)C(F)(F)C(F)(F)F)cc(C)c1NC(=O)c1ccc(C(=O)NCc2ccccc2OC(F)(F)F)c(C)c1 (stereo not drawn) [A30]
no or little effect: [1] | [2] | [3] | [4] | [5] | [6]

CCc1cc(C(F)(C(F)(F)F)C(F)(F)C(F)(F)F)cc(C)c1NC(=O)c1ccc(C(=O)Nc2cc(C)nn2C)c(C)c1 (stereo not drawn) [A54]
no or little effect: [1] | [2] | [3] | [4] | [5] | [6]

CCc1cc(C(F)(C(F)(F)F)C(F)(F)C(F)(F)F)cc(C)c1NC(=O)c1ccc(C(=O)NC2CCCCC2C)c(C)c1 (stereo not drawn) [A21]
no or little effect: [1] | [2] | [3] | [4] | [5] | [6]

CCc1cc(C(F)(C(F)(F)F)C(F)(F)C(F)(F)F)cc(C)c1NC(=O)c1ccc(C(=O)NCc2ccc(C(C)(C)C)cc2)c(C)c1 (stereo not drawn) [A81]
no or little effect: [1] | [2] | [3] | [4] | [5] | [6]

CCc1cc(C(F)(C(F)(F)F)C(F)(F)C(F)(F)F)cc(C)c1NC(=O)c1ccc(C(=O)Nc2cc(-c3ccccc3)[nH]n2)c(C)c1 (stereo not drawn) [A61]
no or little effect: [1] | [2] | [3] | [4] | [5] | [6]

CCc1cc(C(F)(C(F)(F)F)C(F)(F)C(F)(F)F)cc(C)c1NC(=O)c1ccc(C(=O)Nc2ccccc2-c2cc3ccccc3[nH]2)c(C)c1 (stereo not drawn) [A51]
no or little effect: [1] | [2] | [3] | [4] | [5] | [6]

CCc1cc(C(F)(C(F)(F)F)C(F)(F)C(F)(F)F)cc(C)c1NC(=O)c1ccc(C(=O)Nc2ccccc2N2CCOCC2)c(C)c1 (stereo not drawn) [A52]
no or little effect: [1] | [2] | [3] | [4] | [5] | [6]

CCc1cc(C(F)(C(F)(F)F)C(F)(F)C(F)(F)F)cc(C)c1NC(=O)c1ccc(C(=O)NCCCN2CCCCC2)c(C)c1 (stereo not drawn) [A67]
no or little effect: [1] | [2] | [3] | [4] | [5] | [6]

CCc1cc(C(F)(C(F)(F)F)C(F)(F)C(F)(F)F)cc(C)c1NC(=O)c1ccc(C(=O)NC2CC(C)(C)N(C)C(C)(C)C2)c(C)c1 (stereo not drawn) [A72]
no or little effect: [1] | [2] | [3] | [4] | [5] | [6]
